Experimental data published in patent publication US20100202971A1, “COMPOUND HAVING TUMOR-RESIDENT PROPERTY” (priority 2009, published 2010).

System: Human giant cell lung carcinoma cells Lu65
Assay: Biological distribution of biotinated αSQAP in tumor of tumor-bearing nude mice (Alexa 488 avidin staining of tumor slices)
Assay type: in vivo, KSN nude mice
Details: tail vein, one hour after administration, FIG. 2
Experimental: Human giant cell lung carcinoma cells Lu65 were transplanted into six-week-old male KSN nude mice in a number of 1×10^6 for each of the mice, and the mice were bred for 14 days to form a tumor mass of about 100-200 mm^3 volume in each of the mice.
Thereafter, three mice were assigned to each of the following four groups (1) to (4):
(1) a control group wherein physiological saline was administered,
(2) a high dose group wherein biotinated αSQAP was administered in a dose of 50 mg/kg,
(3) a middle dose group wherein biotinated αSQAP was administered in a dose of 5 mg/kg, and […]
The slice was observed by a fluorescence microscope, and the slice was made into an image. Data on the image were input to a computer, and then positive signals of the image were quantified according to image analysis software.
Specifically, binary image processing based on Photoshop was performed to estimate a tumor region emitting fluorescence through the labeling material Alexa 488 in the slice. Thereafter, a portion (fraction) containing tumor tissues was selected from the visual field, and the number of pixels of the Alexa 488 positive region (black region) and the entire region were counted and the ratio of the positive region was calculated according to the formula: […]

O=C(CCCC[C@@H]1SC[C@@H]2NC(=O)N[C@@H]21)NCCC(=O)OCCCO[C@H]1O[C@H](CS(=O)(=O)[O-])[C@@H](O)[C@H](O)[C@H]1O.O=C(CCCC[C@@H]1SC[C@@H]2NC(=O)N[C@@H]21)NCCC(=O)OCCCO[C@H]1O[C@H](CS(=O)(=O)[O-])[C@@H](O)[C@H](O)[C@H]1O.[Ca+2] [biotinated αSQAP, 3-O-(6-sulfo-α-D-quinovopyranosyl)-1-O-(biotinyl-β-alanyl)-propane-1,3-diol calcium salt]
amount in tumor (50 mg/kg): large | staining of tumor tissues (Alexa 488 positive region) (high dose group 50 mg/kg): intensely dyed
